The values below come from PMC9921301, “Design, Synthesis, and Antiproliferative Activity of New 5-Chloro-indole-2-carboxylate and Pyrrolo[3,4-b]indol-3-one Derivatives as Potent Inhibitors of EGFR^T790M/BRAF^V600E Pathways” (Molecules, 2023).

Read-outs that look alike come from different tables or passages of the source.

In data set [1] the test system is Panc-1 (pancreatic cancer cell line). Briefly: Antiproliferative assay, Panc-1. The settings on record: Homo sapiens, read-out: Antiproliferative Activity IC50 ± SEM Panc-1. Format: cell-based. On the procedure:
(§1) For ease of manipulation, the average (GI50) versus the four cancer cell lines was used.
(§2) To investigate the antiproliferative potential of 3a–e, 4a–c, and 5a–c, the MTT assay was carried out using various cell lines in accordance with previously reported procedures. See Appendix SA (Supplementary Materials). […]
(§3) ethylenediamine tetra acetic acid (EDTA) was used to passage the cells after every 2-3 days. 96-well flat-bottomed cell culture plates were used to seed the cells at a density of 10^4 cells mL-1. The medium was aspirated from all the wells of culture plates after 24 h followed by the addition of synthesized compounds (in 200 μL medium to yield a final concentration of 0.1% (v/v) dimethylsulfoxide) into individual wells of the plates.
(§4) Four wells were designated to a single compound. The plates were allowed to incubate at 37°C for 96 h. Afterwards, the medium was aspirated and 3-[4,5-dimethylthiazol-2-yl]-2,5-diphenyltetrazolium bromide (MTT) (0.4 mg/mL) in medium was added to each well and subsequently incubated for 3 h. The medium was aspirated and 150 μL dimethyl sulfoxide (DMSO) was added to each well. The plates were vortexed followed by the measurement of absorbance at 540 nm on a microplate reader. The results were presented as inhibition (%) of proliferation in contrast to controls comprising 0.1% 4.2.1.2. Assay for antiproliferative effect
(§5) To explore the antiproliferative potential of compounds propidium iodide fluorescence assay was performed using different cell lines such as Panc-1 (pancreas cancer cell […]
(§6) (epithelial cancer cell line), respectively. To calculate the total nuclear DNA, a fluorescent dye (propidium iodide, PI) is used which can attach to the DNA, thus offering a quick and precise technique. PI cannot pass through the cell membrane and its signal intensity can be considered as directly proportional to quantity of cellular
(§7) DNA. Cells whose cell membranes are damaged or have changed permeability are counted as dead ones. The assay was performed by seeding the cells of different cell lines at a density of 3000-7500 cells/well (in200μl medium) in culture plates followed […]
(§8) The medium was removed; the compounds were added to the plates at 10 μM concentrations (in 0.1% DMSO) in triplicates, followed by incubation for 48h. DMSO (0.1%) was used as control. After incubation, medium was removed followed by the addition of PI (25 μl, 50μg/mL in water/medium) to each well of the plates. At -80 °C, the plates were allowed to freeze for 24 h, followed by thawing at 25 °C. A fluorometer (Polar-Star BMG Tech) was used to record the readings at excitation and emission wavelengths of 530 and 620 nm for each well. The percentage cytotoxicity of compounds was calculated using the following formula:
(§9) Where ATC= Absorbance of treated cells and AC= Absorbance of control. […]
(§10) was used as positive control in the assay. […]

Data set [2] deals with T1, EGFR^T790M (Homo sapiens, UniProt P00533, T790M).
T1 construct: purchased Carna Bioscience
Briefly: EGFR^T790M inhibitory assay (HTRF KinEASE-TK). Format: biochemical. The settings on record: for IC50: HTRF KinEASE-TK, read-out: EGFR^T790M Inhibition IC50 ± SEM. On the procedure: Osimertinib served as the positive control.
EGFRT790M inhibitory assay
The EGFR protein (EGFRT790M) was purchased from Carna Bioscience. The HTRF KinEASE-TK kit (Cat#62TK0PEB) was from Cisbio. All the other chemicals were […]
low volume, black, NBS), using Cisbio HTRF KinEASE -TK kit. The assay buffer contained 50 mM HEPES (Ph 7.0), 0.02% NaN3, 0.01% BSA, 0.1 mM Orthovanadate, […]
EGFR kinases was first incubated with compounds for 2 h respectively, then ATP/Peptide substrate mixture was added to initiate the reaction. After 30 min reaction at room temperature, the detection reagents were added. The TR-FRET signal was measured on PerkinElmer Envision using […]
The data was analyzed using Graph
Pad Prism (Version 6.0) software after three parallel experiments. […]

The target of data set [3] is T2, BRAF^V600E (Mus musculus, UniProt P28028, V585E).
T2 construct: Mouse full-length GST-tagged; GST; purchased Invitrogen PV3849
Briefly: V600E mutant BRAF kinase assay. The data set is classed as biochemical. The settings on record: read-out: BRAF^V600E Inhibition IC50 ± SEM. Here is the method:
V600E mutant BRAF kinase assay was performed to investigate the activity of […]
Mouse full-length GST-tagged
BRAFV600E (7.5 ng, Invitrogen, PV3849) was pre -incubated with drug (1 µL) and assay dilution buffer (4 µL) for 6 0 min at 25 °C. In assay dilution buffer, a solution (5 µL) containing MgCl2 (30 mM), ATP (200 µM), recombinant human full length (200 ng) […] N-terminal His-tagged MEK1 (Invitrogen) was added to start the assay, after incubation for 25 min at 25 °C. The assay was stopped using 5X protein denaturing buffer (LDS) solution (5 µL). To further denature the protein, heat (70° C) was applied […]
electrophoresis (at 200 V). 10 µL of each reaction was loaded into the precast plates and electrophoresis was allowed to proceed. After completion of electrophoresis, the front part of the precast gel plate (holding hot ATP) was cut and afterwards cast -off.
The dried gel was developed using a phosphor screen. […]
Computerized Prism 5 program was used to statistically analyzed data using one-way ANOVA test followed by Tukey’s as post ANOVA for multiple comparison at P ≤.05.
Data were presented as mean ± SEM.

The subject of data set [4] is MCF-7 (breast cancer cell line). Briefly: Antiproliferative assay, MCF-7. The settings on record: Homo sapiens, MCF7; read-out: Antiproliferative Activity IC50 ± SEM MCF-7. Format: cell-based. Here is the method:
as §1, §2, §3, §4, §5, §6, §7, §8, §9, §10

The test system of data set [5] is LOX-IMVI melanoma cell line. Briefly: LOX-IMVI melanoma cell line cytotoxicity assay (MTT). The settings on record: Homo sapiens, 5-dose concentrations, read-out: LOX-IMVI Melanoma IC50 ± SEM. The data set is classed as cell-based. Here is the method:
The IC50 values of the test compounds were determined at 5-dose concentrations, with staurosporine serving as a control.
The anticancer activity of the synthesized derivatives was determined using the MTT cytotoxicity assay on LOX-IMVI melanoma cell line. See Appendix SA (Supplementary Materials).

Data set [6] deals with A-549 (epithelial cancer cell line). Briefly: Antiproliferative assay, A-549. The data set is classed as cell-based. The settings on record: Homo sapiens, A549; read-out: Antiproliferative Activity IC50 ± SEM A-549. On the procedure:
as §1, §2, §3, §4, §5, §6, §7, §8, §9, §10

Data set [7] has as its target T3, EGFR (Homo sapiens, UniProt P00533). Briefly: EGFR-TK inhibitory assay.
The nature of data set [8]: Cell viability assay (MTT) on normal mammary epithelial cells. The data set is classed as cell-based. The settings on record: human, MCF-10A normal mammary gland epithelial cells, four days of incubation. Here is the method: The viability test was performed on a normal human mammary gland epithelial cell line (MCF-10A). The MTT test was used to assess the viability of compounds 3a–e, 4a–c, and 5a–c.
The MTT assay was used to determine how the synthesized compounds affected the viability of mammary epithelial cells (MCF-10A). See Appendix SA (Supplementary Materials). […]
4.2. Biological evaluation
4.2.1. Cytotoxic activity using MTT Assay and evaluation of IC50
MTT assay was performed to investigate the effect of the synthesized compounds on mammary epithelial cells (MCF-10A). The cells were propagated in medium consisting of Ham's F-12 medium/ Dulbecco's modified Eagle's medium (DMEM) (1:1) supplemented with 10% foetal calf serum, 2 mM glutamine, insulin (10 μg/mL), hydrocortisone (500 ng/mL) and epidermal growth factor (20 ng/mL). Trypsin ethylenediamine tetra acetic acid (EDTA) was used to passage the cells after every 2-3 days. 96-well flat-bottomed cell culture plates were used to seed the cells at a density of 10^4 cells mL-1. The medium was aspirated from all the wells of culture plates after 24 h followed by the addition of synthesized compounds (in 200 μL medium to yield a final concentration of 0.1% (v/v) dimethylsulfoxide) into individual wells of the plates.
Four wells were designated to a single compound. The plates were allowed to incubate at 37°C for 96 h. Afterwards, the medium was aspirated and 3-[4,5-dimethylthiazol-2-yl]-2,5-diphenyltetrazolium bromide (MTT) (0.4 mg/mL) in medium was added to each well and subsequently incubated for 3 h. The medium was aspirated and 150 μL dimethyl sulfoxide (DMSO) was added to each well. The plates were vortexed followed by the measurement of absorbance at 540 nm on a microplate reader. […]

Data set [9] concerns four human cancer cell lines (Panc-1, MCF-7, HT-29, A-549). Briefly: Antiproliferative assay, average (GI50) versus the four cancer cell lines. Format: cell-based. The settings on record: Homo sapiens; average versus the four cancer cell lines. Here is the method: as §1, §2, §3, §4, §5, §6, §7, §8, §9, §10
Data set [10] concerns HT-29 (colon cancer cell line). Briefly: Antiproliferative assay, HT-29. The data set is classed as cell-based. The settings on record: Homo sapiens, read-out: Antiproliferative Activity IC50 ± SEM HT-29. On the procedure: as §1, §2, §3, §4, §5, §6, §7, §8, §9, §10
Data set [11] addresses T1, EGFR^T790M. The settings on record: cited from earlier work.
The test system of data set [12] is EGFR^L858R. Also on record: method as in PMID 29758406. The settings on record: cited from earlier work.
For data set [13], the system named is c-MET. Also noted: method as in PMID 29758406. The settings on record: cited from earlier work.
Data set [14] concerns four cancer cell lines. Also noted: method as in PMID 32920363. The settings on record: read-out: GI50 against four cancer cell lines; cited from earlier work.
The target of data set [15] is T3, EGFR. Also on record: CD, amino acids 645–1186); His6 (N); made in house; host or cells: Sf-9 insect cells (baculovirus; pBlueBacHis2B / pFASTBacHTc. The settings on record: cited from earlier work.
Data set [16] has as its system BRAF^V600E. The settings on record: cited from earlier work.

T1 sequence (P00533 25-1210 T790M): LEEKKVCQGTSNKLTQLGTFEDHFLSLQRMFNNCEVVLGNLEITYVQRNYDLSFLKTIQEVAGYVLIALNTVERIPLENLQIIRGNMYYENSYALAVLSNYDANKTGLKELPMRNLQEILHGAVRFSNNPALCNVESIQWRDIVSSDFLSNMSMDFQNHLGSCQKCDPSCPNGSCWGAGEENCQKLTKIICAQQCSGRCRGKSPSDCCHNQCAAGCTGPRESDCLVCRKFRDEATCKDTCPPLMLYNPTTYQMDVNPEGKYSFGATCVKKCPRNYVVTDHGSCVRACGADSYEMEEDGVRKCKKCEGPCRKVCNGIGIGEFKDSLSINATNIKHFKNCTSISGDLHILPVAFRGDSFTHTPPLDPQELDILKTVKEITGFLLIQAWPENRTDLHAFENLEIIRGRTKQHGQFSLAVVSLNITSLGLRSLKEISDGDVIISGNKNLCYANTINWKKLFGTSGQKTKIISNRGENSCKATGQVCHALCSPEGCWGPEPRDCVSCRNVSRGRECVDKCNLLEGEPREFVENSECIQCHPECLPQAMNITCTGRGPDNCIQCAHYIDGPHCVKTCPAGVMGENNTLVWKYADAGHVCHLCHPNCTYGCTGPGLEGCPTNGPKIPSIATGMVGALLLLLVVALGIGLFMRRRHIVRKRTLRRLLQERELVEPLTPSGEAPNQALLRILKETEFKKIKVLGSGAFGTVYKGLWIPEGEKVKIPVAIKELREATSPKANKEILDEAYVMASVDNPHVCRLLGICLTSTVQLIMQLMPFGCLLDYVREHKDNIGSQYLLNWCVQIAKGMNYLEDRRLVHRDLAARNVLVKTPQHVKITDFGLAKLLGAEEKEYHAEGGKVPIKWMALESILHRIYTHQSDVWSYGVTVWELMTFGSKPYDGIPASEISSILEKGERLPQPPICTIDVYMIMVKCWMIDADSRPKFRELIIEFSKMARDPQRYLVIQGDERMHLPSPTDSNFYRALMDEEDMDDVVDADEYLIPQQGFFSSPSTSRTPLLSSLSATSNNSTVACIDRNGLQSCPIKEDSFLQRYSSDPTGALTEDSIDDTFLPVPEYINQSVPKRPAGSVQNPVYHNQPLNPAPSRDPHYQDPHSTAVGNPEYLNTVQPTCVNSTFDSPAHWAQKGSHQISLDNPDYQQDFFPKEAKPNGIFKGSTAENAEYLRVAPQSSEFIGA
T3 sequence (P00533 669-1210): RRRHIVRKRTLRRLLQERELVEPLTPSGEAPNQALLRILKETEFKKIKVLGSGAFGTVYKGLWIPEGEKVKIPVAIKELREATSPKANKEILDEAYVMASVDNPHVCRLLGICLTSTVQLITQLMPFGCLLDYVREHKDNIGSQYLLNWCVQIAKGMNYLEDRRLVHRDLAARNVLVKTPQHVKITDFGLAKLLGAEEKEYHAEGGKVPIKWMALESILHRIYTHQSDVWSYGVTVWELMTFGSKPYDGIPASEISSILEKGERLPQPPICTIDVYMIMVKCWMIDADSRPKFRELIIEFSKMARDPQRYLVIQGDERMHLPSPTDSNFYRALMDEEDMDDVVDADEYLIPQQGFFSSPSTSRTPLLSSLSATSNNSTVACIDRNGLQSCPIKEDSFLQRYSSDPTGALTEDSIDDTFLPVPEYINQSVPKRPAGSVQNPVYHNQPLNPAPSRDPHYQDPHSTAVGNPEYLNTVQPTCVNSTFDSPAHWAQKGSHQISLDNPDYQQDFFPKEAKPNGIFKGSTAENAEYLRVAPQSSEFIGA
T2 sequence (P28028 whole entry V585E): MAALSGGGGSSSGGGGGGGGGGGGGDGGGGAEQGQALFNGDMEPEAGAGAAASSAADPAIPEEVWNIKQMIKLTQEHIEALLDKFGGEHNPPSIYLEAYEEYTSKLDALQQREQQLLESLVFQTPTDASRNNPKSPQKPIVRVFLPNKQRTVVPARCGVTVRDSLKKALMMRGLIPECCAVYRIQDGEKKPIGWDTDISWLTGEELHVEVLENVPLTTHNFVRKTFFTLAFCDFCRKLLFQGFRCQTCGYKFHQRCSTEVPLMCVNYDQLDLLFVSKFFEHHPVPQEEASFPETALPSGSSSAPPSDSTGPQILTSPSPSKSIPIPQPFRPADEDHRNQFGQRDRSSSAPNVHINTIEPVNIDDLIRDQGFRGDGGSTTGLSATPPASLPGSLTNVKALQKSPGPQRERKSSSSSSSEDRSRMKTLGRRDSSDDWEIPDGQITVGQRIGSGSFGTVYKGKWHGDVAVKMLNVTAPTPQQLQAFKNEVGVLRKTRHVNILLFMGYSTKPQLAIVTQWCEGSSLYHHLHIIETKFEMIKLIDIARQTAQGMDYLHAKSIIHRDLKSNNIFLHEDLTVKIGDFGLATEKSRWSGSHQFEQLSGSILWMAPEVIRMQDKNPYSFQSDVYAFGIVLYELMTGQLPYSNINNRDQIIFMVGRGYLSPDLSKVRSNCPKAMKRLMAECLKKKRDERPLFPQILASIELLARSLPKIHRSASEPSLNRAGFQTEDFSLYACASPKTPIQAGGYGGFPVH

With `CCOC(=O)c1[nH]c2ccc(Cl)cc2c1CNCCc1ccc(N2CCCC2)cc1` [Compound 3b, Ethyl 5-chloro-3-((4-(pyrrolidin-1-yl)phenethylamino)methyl)-1H-indole-2-carboxylate], the IC50 (commonly the point on the concentration scale where inhibition reaches its midpoint) in [1] was found to be 30 ± 3 nM; in [2], 9.2 ± 2 nM; in [3] it was 39 ± 3 nM; in data set [4], 32 ± 3 nM; in data set [5], 1120 ± 10 nM; in data set [6], 30 ± 3 nM. Besides, the IC50 in data set [7] is 74 ± 5 nM; in data set [10], 32 ± 3 nM. Moreover, the “selectivity index toward EGFR^T790M protein over wild-type EGFR” value in [2] worked out at 8 fold. Also, in data set [8], the viability (usually a per cent measure of how many cells are alive, often set against a control) at 96 h, 50 µM was determined as 91%. Moreover, in data set [9], it took 31 nM to inhibit growth by half (GI50).

On to `CCOC(=O)c1[nH]c2ccc(Cl)cc2c1CNCCc1cccc(N2CCCCC2)c1` [Compound 3e, Ethyl 5-chloro-3-((3-(piperidin-1-yl)phenethylamino)methyl)-1H-indole-2-carboxylate], for which the IC50 in [1] was determined as 29 ± 3 nM; in data set [2], 8.6 ± 2 nM; in data set [3], 35 ± 3 nM; in data set [4], 30 ± 3 nM; in data set [5], 960 ± 10 nM; in data set [6] it was 27 ± 2 nM. Further, the IC50 in data set [7] amounted to 68 ± 5 nM; in data set [10], 30 ± 3 nM. For the same compound, in data set [2], the “selectivity index toward EGFR^T790M protein over wild-type EGFR” value was determined as 8 fold. The “fold more potent than erlotinib (EGFR IC50)” value in data set [7] (relative to erlotinib IC50 = 80 nM) is 1.2 fold. The same compound gave a viability at 96 h, 50 µM in data set [8] of 92%. In addition, the GI50 (usually the concentration at which growth is held to half of that of the control) in data set [9] worked out at 29 nM.

For `CCc1ccc(Cn2cc(-c3cc(-c4ccc(Br)cc4)nc(N)n3)c3ccccc32)cc1` [Compound II], the IC50 in data set [11] was 94 nM; in data set [12] it was 99 nM; in data set [13], 595 nM.

As to `Cc1c2n(c3ccc(Cl)cc13)C(=O)CN(CCc1ccc(N3CCOCC3)cc1)C2=O` [Compound VI], in [14], the GI50 is 1110 nM. Moreover, the IC50 in data set [15] is 80 nM; in data set [16] it was 150 nM.
